Laboratory results reported in patent US5349127A, “Expression of herbicide metabolizing cytochromes P450” (priority 1992, dated 1994).

How the values were obtained:
[1] = tested on: Tomato seedlings (Lysopersicon esculentum cv. Pixie); assay: Tomato transplants in sulfonylurea-treated soil after dipping in water, YEME or S. lividans culture (Example 13); assay type: in vivo; conditions: for Mean value of visual ratings / Visual Injury Ratings of individual transplanted tomatoes: 19 DAT
Description: A 2 liter culture of S. lividans pCAO200SU1-FeS-B#9 was grown in YEME medium at 30° C. until the culture was in […] log phase of growth and the absorbance in a spectrophotometer at a wavelength of 600 nm was between about 1.0 and 1.3. Tomato seedlings (Lysopersicon esculentum cv. "Pixie") were seeded directly into soiless media, Oasis Wedges® (Smithers-Oasis, Kent, Ohio), fertilized with 500 ppm Peters'® fertilizer (20:19:18); and 300 ppm of iron was added weekly. As the tomato plants develop, roots ramify through the Oasis Wedges®. The tomato plants were transplanted to pots when they were 4 inches tail as follows.
Five inch standard round pots (without holes) were filled with Sassafras sandy loam (pH 6.7, 0.8% OM) and an oasis cube. The contents of the each pot was sprayed, prior to transplanting the tomato plants, with either 10001, in 25% dry flowable composition (25 DF) or 10010, 75 DF at rates of 16, 32, 64, 125 or 250 grams of active ingredient per hectare (g ai/ha). The Oasis cube was then removed and replaced by another containing a transplant tomato plant dipped in either water (treatment A), YEME medium (treatment B)-or the culture of S. lividans pCAO200SU1-FeS-B#9 described above (treatment C). Six transplant tomato plants received each of the three treatments, and five transplant tomato plants (to serve as controls) received no treatment. The resulting tomato plants were grown in a greenhouse for 19 days and watered twice daily, after which they were evaluated for visual injury (100=complete kill, other numbers=percentage of injury relative to controls [subjectively determined], 0=no injury) with respect to the water dipped, no-herbicide control treatments. The plants were left in the greenhouse for one more week after which the fresh weights of the shoots of the plants were determined. The roots of the plants which received these treatments and controls were examined too.

S. ambofaciens PH4002 = assay: Metabolism of 10001 by untransformed strain (Example 14); assay type: in vitro ADME, Streptomyces ambofaciens; conditions: substrate 10001 120 ug/ml
S. griseus PH4001 = assay: as above; assay type: in vitro ADME, Streptomyces griseus; conditions: substrate 10001 120 ug/ml
S. ambofaciens PH3818 = assay: Metabolism of 10001 by strains transformed with pCS325 (Example 15); assay type: in vitro ADME, Streptomyces ambofaciens; conditions: substrate 10001
Description: S. griseolus PH2003, S. griseus PH4001, S. ambofaciens PH4002, and S. lividans JI1326 were transformed with the plasmid pPAT108. The transformed S. griseolus strain, PH3826, was cultured for 24 hours in 150 mls of sporulation broth with 5 ug/ml thiostrepton. The transformed S. griseus strain, PH3832, and the transformed S. ambofaciens strain, PH3834, were cultured for 24 hours in 150 mls of trypticase soy broth with 5 ug/ml thiostrepton. The transformed S. lividans strain, PH3822, was similarly cultured in 150 mls of YEME broth with 5 ug/ml thiostrepton. Three hours before harvesting the cells, 50 mls of fresh medium of the same type with 5 ug/ml thiostrepton was added to each culture. The cells from each of the cultures were harvested by centrifugation, washed twice with 50 mMMOPS, pH7.2 and resuspended in five cell volumes of MOPS containing 0.2% glucose and 120 ug/ml of the sulfonylurea 10001. The cell suspensions were incubated at 30° C. with shaking and aliquots were removed at 0.5, 1, 2 and 4 hours. The supernatant of each aliquot was analyzed by HPLC and the concentration of the sulfonylurea compound 10001 and its metabolites 10002 and 10003 were determined.
S. griseolus PH2003, S. griseus PH4001, S. ambofaciens PH4002, and S. lividans JI1326 were transformed with the plasmid pCS325. Cells of the transformed strains of S. griseolus PH3809, S. griseus PH3817, S. ambofaciens PH3818, and S. lividans PH3816, were grown and treated as described in Example 14, and the concentrations of the sulfonylurea compound 10001 and its metabolites 10002 and 10003 were determined.

[2] = 16 g ai/ha, Treatment A (water)
[3] = 16 g ai/ha, Treatment A (water), scale 0-100
[4] = 16 g ai/ha, Treatment B (YEME), scale 0-100
[5] = 16 g ai/ha, Treatment C (pCAO200SU1-FeS-B#9)
[6] = 16 g ai/ha, Treatment C (pCAO200SU1-FeS-B#9), scale 0-100
[7] = 32 g ai/ha, Treatment A (water)
[8] = 32 g ai/ha, Treatment A (water), scale 0-100
[9] = 32 g ai/ha, Treatment B (YEME), scale 0-100
[10] = 32 g ai/ha, Treatment C (pCAO200SU1-FeS-B#9)
[11] = 32 g ai/ha, Treatment C (pCAO200SU1-FeS-B#9), scale 0-100
[12] = 64 g ai/ha, Treatment A (water), scale 0-100
[13] = 64 g ai/ha, Treatment B (YEME), scale 0-100
[14] = 64 g ai/ha, Treatment C (pCAO200SU1-FeS-B#9), scale 0-100
[15] = 125 g ai/ha, Treatment A (water), scale 0-100
[16] = 125 g ai/ha, Treatment B (YEME), scale 0-100
[17] = 125 g ai/ha, Treatment C (pCAO200SU1-FeS-B#9), scale 0-100
[18] = 250 g ai/ha, Treatment A (water), scale 0-100, 100 = complete kill
[19] = 250 g ai/ha, Treatment B (YEME), scale 0-100
[20] = 250 g ai/ha, Treatment C (pCAO200SU1-FeS-B#9), scale 0-100

COC(=O)c1ccccc1S(=O)(=O)NC(=O)Nc1nc(C)cc(C)n1 [compound 10010, N-[(4,6-dimethylpyrimidin-2-yl)aminocarbonyl]-2-methoxycarbonylbenzenesulfonamide]
Mean Shoot Fresh Weights [1, 2]: 1.28 grams | Mean value of visual ratings [1, 3]: 70.0 | Mean Shoot Fresh Weights ([1]; 16 g ai/ha, Treatment B (YEME)): 1.58 grams | Mean value of visual ratings [1, 4]: 63.3 | Mean Shoot Fresh Weights [1, 5]: 2.10 grams | Mean value of visual ratings [1, 6]: 60 | Mean Shoot Fresh Weights [1, 7]: 0.65 grams | Mean value of visual ratings [1, 8]: 93.3 | Visual Injury Ratings of individual transplanted tomatoes [1, 8]: 100,100,100 | Mean Shoot Fresh Weights ([1]; 32 g ai/ha, Treatment B (YEME)): 1.60 grams | Mean value of visual ratings [1, 9]: 66.7 | Mean Shoot Fresh Weights [1, 10]: 1.79 grams | Mean value of visual ratings [1, 11]: 56.7 | Mean value of visual ratings [1, 12]: 90.0 | Visual Injury Ratings of individual transplanted tomatoes [1, 12]: 80,100,100 | Mean value of visual ratings [1, 13]: 83.3 | Mean value of visual ratings [1, 14]: 86.7 | Visual Injury Ratings of individual transplanted tomatoes [1, 14]: 60,100,100 | Mean value of visual ratings [1, 15]: 91.7 | Visual Injury Ratings of individual transplanted tomatoes [1, 15]: 90,100,100 | Mean value of visual ratings [1, 16]: 83.3 | Mean value of visual ratings [1, 17]: 76.7 | Visual Injury Ratings of individual transplanted tomatoes ([1]; 250 g ai/ha, Treatment A (water), scale 0-100): 90,100,100 | Mean value of visual ratings [1, 18]: 95.0 | Mean value of visual ratings [1, 19]: 86.7 | Mean value of visual ratings [1, 20]: 85 | visual injury across treatments A, B, C ([1]; all rates): injured to similar extents regardless of the treatment they received

COc1cc(Cl)nc(NC(=O)NS(=O)(=O)c2ccccc2C(=O)O)n1 [compound 10003, N-[(4-chloro-6-methoxy-pyrimidin-2-yol)aminocarbonyl]-2-carboxybenzenesulfonamide]
concentration in supernatant (S. ambofaciens PH4002; 1.0 h): 0 µM | concentration in supernatant (S. ambofaciens PH4002; 4.0 h): 0 µM | concentration in supernatant (S. griseus PH4001; 1.0 h): 1 µM | concentration in supernatant (S. griseus PH4001; 4.0 h): 4 µM | concentration in supernatant (S. ambofaciens PH3818; 0.5 h): 1 µM | concentration in supernatant (S. ambofaciens PH3818; 1.0 h): 3 µM | concentration in supernatant (S. ambofaciens PH3818; 2.0 h): 7 µM | concentration in supernatant (S. ambofaciens PH3818; 4.0 h): 13 µM

CCOC(=O)c1ccccc1S(=O)(=O)NC(=O)Nc1nc(Cl)cc(OC)n1 [compound 10001, N-[(4-chloro-6-methoxy-pyrimidin-2-yl)aminocarbonyl]-2-ethoxycarbonylbenzenesulfonamide]
concentration in supernatant (S. ambofaciens PH4002; 1.0 h): 406 µM | concentration in supernatant (S. ambofaciens PH4002; 4.0 h): 412 µM | Mean Shoot Fresh Weights [1, 2]: 3.25 grams | Mean value of visual ratings [1, 3]: 43.3 | Mean Shoot Fresh Weights ([1]; 16 g ai/ha, Treatment B (YEME)): 2.35 grams | Mean value of visual ratings [1, 4]: 51.7 | Mean Shoot Fresh Weights [1, 5]: 3.1 grams | Mean value of visual ratings [1, 6]: 40 | Mean Shoot Fresh Weights [1, 7]: 2.49 grams | Mean value of visual ratings [1, 8]: 68.3 | Mean Shoot Fresh Weights ([1]; 32 g ai/ha, Treatment B (YEME)): 1.76 grams | Mean value of visual ratings [1, 9]: 58.3 | Mean Shoot Fresh Weights [1, 10]: 3.37 grams | Mean value of visual ratings [1, 11]: 50 | visual injury, treatment C versus treatments A or B ([1]; 64, 125, and 250 g ai/ha): significantly less injured | Mean Shoot Fresh Weights ([1]; 64 g ai/ha, Treatment A (water)): 1.37 grams | Mean value of visual ratings [1, 12]: 66.7 | Mean Shoot Fresh Weights ([1]; 64 g ai/ha, Treatment B (YEME)): 1.40 grams | Mean value of visual ratings [1, 13]: 63.3 | Mean Shoot Fresh Weights ([1]; 64 g ai/ha, Treatment C (pCAO200SU1-FeS-B#9)): 2.94 grams | Mean value of visual ratings [1, 14]: 43.3 | Shoot weight, dipped in pCAO200SU1-FeS-B#9 culture versus water or YEME ([1]; 125 g ai/ha): 2-3 times | Mean Shoot Fresh Weights ([1]; 125 g ai/ha, Treatment A (water)): 0.80 grams | Mean value of visual ratings [1, 15]: 90 | Mean Shoot Fresh Weights ([1]; 125 g ai/ha, Treatment B (YEME)): 1.06 grams | Mean value of visual ratings [1, 16]: 70 | Mean Shoot Fresh Weights ([1]; 125 g ai/ha, Treatment C (pCAO200SU1-FeS-B#9)): 2.72 grams | Mean value of visual ratings [1, 17]: 50 | Shoot weight, dipped in pCAO200SU1-FeS-B#9 culture versus water or YEME ([1]; 250 g ai/ha): 3-4 times greater | Mean Shoot Fresh Weights ([1]; 250 g ai/ha, Treatment A (water)): 0.63 grams | Mean value of visual ratings [1, 18]: 91.7 | Mean Shoot Fresh Weights ([1]; 250 g ai/ha, Treatment B (YEME)): 0.40 grams | Mean value of visual ratings [1, 19]: 81.7 | Mean Shoot Fresh Weights ([1]; 250 g ai/ha, Treatment C (pCAO200SU1-FeS-B#9)): 2.41 grams | Mean value of visual ratings [1, 20]: 50.0 | concentration in supernatant (S. griseus PH4001; 1.0 h): 370 µM | concentration in supernatant (S. griseus PH4001; 4.0 h): 377 µM | concentration in supernatant (S. ambofaciens PH3818; 0.5 h): 286 µM | concentration in supernatant (S. ambofaciens PH3818; 1.0 h): 265 µM | concentration in supernatant (S. ambofaciens PH3818; 2.0 h): 210 µM | concentration in supernatant (S. ambofaciens PH3818; 4.0 h): 129 µM
